Legend:
SLC35E1 = SLC35E1 (Homo sapiens, UniProt Q96K37)
SLC35E4 = molecular target: T1, SLC35E4 (Homo sapiens, UniProt Q6ICL7)
T1 sequence (Q6ICL7 1-350): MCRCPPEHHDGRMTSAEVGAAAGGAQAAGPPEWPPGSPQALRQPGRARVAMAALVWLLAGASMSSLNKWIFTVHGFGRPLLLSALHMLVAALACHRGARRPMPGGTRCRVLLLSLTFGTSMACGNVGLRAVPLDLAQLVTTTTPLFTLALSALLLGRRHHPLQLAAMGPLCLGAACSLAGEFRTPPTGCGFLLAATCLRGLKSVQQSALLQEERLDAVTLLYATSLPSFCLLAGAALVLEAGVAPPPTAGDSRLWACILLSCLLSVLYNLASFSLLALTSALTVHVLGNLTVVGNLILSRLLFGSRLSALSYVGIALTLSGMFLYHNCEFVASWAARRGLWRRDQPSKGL

SLC35F2 = molecular target: T2, SLC35F2 (Homo sapiens, UniProt Q8IXU6); conditions: human
T2 sequence (Q8IXU6 1-374): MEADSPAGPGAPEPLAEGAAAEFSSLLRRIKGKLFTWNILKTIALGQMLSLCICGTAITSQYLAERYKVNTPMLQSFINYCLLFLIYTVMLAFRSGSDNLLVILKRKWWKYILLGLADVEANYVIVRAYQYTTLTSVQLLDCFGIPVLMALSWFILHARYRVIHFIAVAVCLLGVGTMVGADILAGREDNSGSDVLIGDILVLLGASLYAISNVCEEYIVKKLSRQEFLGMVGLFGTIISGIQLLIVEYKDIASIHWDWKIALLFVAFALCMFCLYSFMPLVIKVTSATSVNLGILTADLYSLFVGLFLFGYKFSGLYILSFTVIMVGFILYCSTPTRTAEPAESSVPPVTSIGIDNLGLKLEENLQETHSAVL

SLC35F4 = molecular target: T3, SLC35F4 (Homo sapiens, UniProt A4IF30)
T3 sequence (A4IF30 1-521): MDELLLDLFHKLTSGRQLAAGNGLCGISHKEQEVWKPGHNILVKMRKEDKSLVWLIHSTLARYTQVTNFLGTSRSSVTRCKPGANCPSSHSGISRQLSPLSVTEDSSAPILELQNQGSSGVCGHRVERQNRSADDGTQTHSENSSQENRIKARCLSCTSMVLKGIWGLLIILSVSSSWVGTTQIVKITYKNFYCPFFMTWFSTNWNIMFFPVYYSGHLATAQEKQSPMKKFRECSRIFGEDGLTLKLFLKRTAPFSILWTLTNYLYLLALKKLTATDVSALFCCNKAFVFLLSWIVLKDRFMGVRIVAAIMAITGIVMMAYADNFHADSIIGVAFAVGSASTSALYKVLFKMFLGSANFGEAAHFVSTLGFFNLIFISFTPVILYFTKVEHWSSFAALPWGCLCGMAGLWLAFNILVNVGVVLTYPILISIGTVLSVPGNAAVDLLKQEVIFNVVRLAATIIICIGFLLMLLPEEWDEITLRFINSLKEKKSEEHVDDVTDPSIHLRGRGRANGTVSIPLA

SLC44A1 = SLC44A1 (Homo sapiens, UniProt Q8WWI5)
SLC35F5 = molecular target: T4, SLC35F5 (Homo sapiens, UniProt Q8WV83); experiment: Uptake ratio screen, SLC35F5-overexpressing HEK293 over empty vector cells; type: cell-based; parameters: by amplifying the entire gene-of-interest within the HEK293 genome via a long-range PCR; conditions: 2.5 μM, 2 min
T4 sequence (Q8WV83 1-523): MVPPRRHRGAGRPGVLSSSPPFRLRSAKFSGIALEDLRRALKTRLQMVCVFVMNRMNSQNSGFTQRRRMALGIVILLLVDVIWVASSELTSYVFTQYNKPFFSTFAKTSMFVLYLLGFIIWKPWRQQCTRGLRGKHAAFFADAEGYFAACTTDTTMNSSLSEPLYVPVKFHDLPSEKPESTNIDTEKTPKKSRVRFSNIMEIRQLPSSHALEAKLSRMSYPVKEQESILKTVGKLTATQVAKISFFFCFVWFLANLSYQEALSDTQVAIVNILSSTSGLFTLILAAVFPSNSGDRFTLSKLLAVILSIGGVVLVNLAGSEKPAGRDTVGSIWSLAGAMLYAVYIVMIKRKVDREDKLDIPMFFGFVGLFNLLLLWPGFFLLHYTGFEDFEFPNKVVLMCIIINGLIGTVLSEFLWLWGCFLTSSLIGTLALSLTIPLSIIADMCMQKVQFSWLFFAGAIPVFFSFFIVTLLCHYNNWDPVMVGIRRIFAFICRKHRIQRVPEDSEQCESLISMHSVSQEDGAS
Procedure: Typically discussed substrates of the proton organic-cation antiporter ([14]) are highlighted in dark green in Figure 1.
In preparation for transport experiments, 24-well plates were pre-coated with poly-D-lysine (Sigma-Aldrich) and 300,000 cells were plated per well and incubated for 48 h. Firstly, the 24-well plate was placed on a heating plate at 37 °C, and the cells were washed with 37 °C HBSS^+ buffer (Hank’s balanced salt solution supplemented with 10 mM Hepes and adjusted to pH 7.4; Thermo Fisher Scientific). The substance-of-interest, which was diluted in 37 °C HBSS^+ to a desired concentration, was added to the cells for exactly 2 min. […] The uptake was stopped with ice-cold HBSS^+, and the 24-well plate was removed from the heating plate. The cells were washed twice with the cold HBSS^+ before they were lysed for 15 min with 80% (v/v) acetonitrile containing the respective internal standard for mass spectrometry. For variations in seeded cell numbers between the cell lines, several wells were lysed in RIPA buffer and used for total protein quantification using a bicinchoninic assay ([74]) and bovine serum albumin as calibration.
The intracellular drug concentrations after transport experiments were analyzed by high-performance liquid chromatography coupled to tandem mass spectrometry analysis. The HPLC consisted of a Shimadzu Nexera HPLC System with a SIL-30AC autosampler, a LC-30AD pump, a CTO-20AC column oven, and a CBM-20A controller (Shimadzu). The reverse-phase chromatography of compounds was accomplished with a Brownlee SPP RP-Amide column with 4.6 × 100 mm inner dimensions, a particle size of 2.7 μm, and a preceding Phenomenex C-18 guard column. The mobile phase was composed of an organic additive with acetonitrile:methanol 6:1 (v/v) in total concentrations between 3% and 50% (v/v) and 0.1% (v/v) formic acid in the aqueous component of the eluent. During separation, the column oven was held at 40 °C and the mobile phase was maintained at a flow rate of 300 or 400 μl/min. After separation, the detection of substances was performed with an API 4000 tandem mass spectrometer (AB SCIEX, https://sciex.com/support/software-support/software-downloads), followed by quantification of results with the Analyst software (AB SCIEX, version 1.6.2). The composition of chromatographic conditions, as well as detailed mass spectrometric detection parameters, are listed in Table S5.
Transport-mediated net uptake was determined as fold-increase of transporter-overexpressing cells over empty vector–transfected control cells.

Chain of SLC44A1 (Q8WWI5 whole entry): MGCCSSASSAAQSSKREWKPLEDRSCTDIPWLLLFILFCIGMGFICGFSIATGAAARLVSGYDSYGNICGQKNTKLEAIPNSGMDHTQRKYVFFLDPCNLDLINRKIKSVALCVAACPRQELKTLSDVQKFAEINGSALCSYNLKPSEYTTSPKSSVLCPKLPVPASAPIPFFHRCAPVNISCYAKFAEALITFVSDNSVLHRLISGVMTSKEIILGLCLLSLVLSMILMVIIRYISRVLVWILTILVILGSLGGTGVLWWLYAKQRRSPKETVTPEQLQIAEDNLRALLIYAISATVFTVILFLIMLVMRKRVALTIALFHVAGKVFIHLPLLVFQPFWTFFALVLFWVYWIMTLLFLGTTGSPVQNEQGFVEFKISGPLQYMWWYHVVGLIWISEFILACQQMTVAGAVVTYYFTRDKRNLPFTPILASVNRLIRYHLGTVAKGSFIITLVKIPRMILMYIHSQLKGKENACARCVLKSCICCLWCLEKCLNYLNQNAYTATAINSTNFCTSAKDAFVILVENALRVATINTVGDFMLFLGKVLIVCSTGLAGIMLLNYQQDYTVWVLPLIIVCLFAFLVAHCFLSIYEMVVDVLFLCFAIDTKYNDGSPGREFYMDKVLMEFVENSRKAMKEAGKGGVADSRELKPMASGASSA
Chain of SLC35E1 (Q96K37 whole entry): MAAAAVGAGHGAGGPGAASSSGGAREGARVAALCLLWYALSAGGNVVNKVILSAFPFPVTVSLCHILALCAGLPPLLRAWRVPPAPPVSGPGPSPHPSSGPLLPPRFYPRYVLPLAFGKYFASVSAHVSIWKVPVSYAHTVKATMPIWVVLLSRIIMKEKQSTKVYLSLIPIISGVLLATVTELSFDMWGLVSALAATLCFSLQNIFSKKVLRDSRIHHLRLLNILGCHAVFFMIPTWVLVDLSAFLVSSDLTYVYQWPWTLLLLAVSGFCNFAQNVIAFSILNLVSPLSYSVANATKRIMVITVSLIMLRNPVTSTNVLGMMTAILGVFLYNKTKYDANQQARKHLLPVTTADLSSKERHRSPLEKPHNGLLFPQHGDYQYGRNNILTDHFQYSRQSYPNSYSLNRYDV

Clint (±SEM) (SLC35E1): 0.95 (±0.57) μl × mg protein^-1 × min^-1
Clint (±SEM) (SLC35E4): 0.17 (±0.36) μl × mg protein^-1 × min^-1
Clint (±SEM) (SLC35F2): 2.48 (±1.47) μl × mg protein^-1 × min^-1
Clint (±SEM) (SLC35F4): 1.32 (±1.74) μl × mg protein^-1 × min^-1
Clint (±SEM) (SLC44A1): 2.08 (±1.79) μl × mg protein^-1 × min^-1
Uptake by SLC35F5 (in words) (SLC35F5): highest uptake rates
Compound: C[N+](C)(C)CCO [Choline]

Reference: PMC11406361, “Several orphan solute carriers functionally identified as organic cation transporters: Substrates specificity compared with known cation transporters” (The Journal of Biological Chemistry, 2024)
